Source: patent publication US20190038597A1, “PREVENTION OF VASCULAR AND CARDIAC FIBROSIS VIA IRE1ALPHA INHIBITION” (McMaster University, priority 2017, published 2019)

Experiments:
[1] = tested on: SHR/L-NAME model of hypertension; assay: Radiotelemetry blood pressure and heart rate in L-NAME-treated SHRs; type: in vivo, rat
Procedure: 12-14 week old male SHRs were implanted with radiotelemetry devices and randomized to receive vehicle, L-NAME (50 mg/L) or L-NAME and 4μ8c (2.5 mg/kg/day i.p.) for 18 days. Systolic (A), diastolic (B), and heart rate (C) were monitored. Data is presented as mean±SEM. *, p<0.05 vs. NT; #, p<0.05 vs. L-NAME. N≥4 per group.
(§1) 12-14 week old male SHRs were used to determine the effect of pharmacological IRE1α inhibition on L-NAME-induced vascular stiffening. They were maintained on a 12-hour light-dark cycle with rat chow and water ad libitium. Animals were implanted with radio-telemetry devices (Data Science International, St. Paul, Minn., USA) one week before the start of the study. Animals were randomized into one of three groups (n=6 per group): 1) No treatment, 2) L-NAME (50 mg/L in drinking water, Sigma-Aldrich), or 3) L-NAME+4μ8c (2.5 mg/kg/day i.p., Millipore). 4μ8c was administered in a vehicle of 10% DMSO, 10% Tween-80 and 80% normal saline. Animals in Group 2 received daily injections of the vehicle. All animals were fed a normal chow diet. At 18 days, animals were sacrificed, organs were harvested and the aorta was collected for mechanical and structural analysis. All animal work was performed according to the guidelines approved by the McMaster University Animal Research Ethics Board.
12-14 week old SHRs were implanted with radiotelemetry devices and treated with the nitric oxide synthase inhibitor L-NAME for 18 days. Rats were given daily injections of either vehicle or 4μ8c (2.5 mg/kg/day i.p.). […] At Day 6, SBP had increased from 187.4±5.4 mmHg to 228.0±15.5 mmHg (p<0.05) and DBP from 134.8±6.5 mmHg to 174.5±13.6 mmHg. At Day 14, SBP and DBP reached a peak of 262.6±13.9 mmHg and 210.4±14.8 mmHg, respectively. […] In the L-NAME+4μ8c group, SBP increased from 166.6±8.4 mmHg at baseline to 216.7±4.8 mmHg at Day 6 while DBP increased from 124.7±5.5 mmHg at baseline to 166.2±8.2 mmHg at Day 6. SBP and DBP peaked at 232.3±5.4 mmHg and 192.1±17.0 mmHg, respectively, at Day 9. […] Vessels were stained with PicroSirius Red and imaged using a light microscope (FIG. 5A). Collagen content in homogenized aortic tissue was measured using the PSR-based colorometric assay.

spliced XBP1, GRP78, PDI = assay: Aortic collagen chaperone and ER stress marker expression (qRT-PCR, Western blot) in L-NAME-treated SHRs; type: in vivo, rat
Procedure: 12-14 week old male SHRs were randomized to receive vehicle, L-NAME (50 mg/L) or L-NAME and 4μ8c (2.5 mg/kg/day i.p.) for 18 days. Total RNA was extracted from flash frozen aortic tissues. (A) qRT-PCR was used to assess relative mRNA expression of spliced XBP1 and GRP78. 18S was used as a housekeeping gene. (B) Protein levels of PDI and GRP78 were assessed by western blotting and normalized to β-actin. Data is presented as mean±SEM. *, p<0.05 vs. NT. #, p<0.05 vs L-NAME.
as §1
Total RNA was extracted from cultured cells and rat tissues using the TRIzol reagent (ThermoFisher) according to manufacturer's instructions. RNA concentration and purity were measured using a Nanodrop ND-1000 spectrophotometer (NanoDrop Technologies, Inc.). […]
For qRT-PCR, cDNA was amplified using the Fast SYBR Green Master Mix (ThermoFisher) and analyzed with 7500 Software. […]
Cells were lysed in 1× Laemmli buffer and protein content was quantified using the BioRad DC Protein Assay (BioRad, Mississauga, Canada). […]

[2] = L-NAME+4μ8c group, peak at Day 9
[3] = SHR, L-NAME 50 mg/L, 4μ8c 2.5 mg/kg/day i.p., 18 days

## Cc1cc(=O)oc2c(C=O)c(O)ccc12 [4μ8c, 7-Hydroxy-4-methyl-2-oxo-2H-chromene-8-carbaldehyde]
[1]; L-NAME+4μ8c group, Day 6
  DBP: 166.2±8.2 mmHg
  SBP: 216.7±4.8 mmHg
[1]; L-NAME+4μ8c group, baseline
  DBP: 124.7±5.5 mmHg
  SBP: 166.6±8.4 mmHg
[1]; [2]
  DBP peak: 192.1±17.0 mmHg
  SBP peak: 232.3±5.4 mmHg
[1]; [3]
  effect on L-NAME-induced elevation in blood pressure: did not have an effect
  effect on L-NAME-induced elevation in heart rate: did not have an effect
Spliced XBP1, GRP78, PDI; L-NAME+4μ8c group compared to the other two groups, Western blot
  GRP78 protein in the aorta: significantly decreased
Spliced XBP1, GRP78, PDI; L-NAME+4μ8c group vs L-NAME group, Western blot
  PDI protein expression in the aorta: significantly decreased
Spliced XBP1, GRP78, PDI; L-NAME+4μ8c group vs L-NAME group, qRT-PCR, FIG. 6A
  Spliced XBP1 and GRP78 mRNA expression in the aorta: reduced
